# From patent US6656921B1, “Use of zinc hyaluronate against peptic ulcer” (Richter Gedeon Vegyeszeti Gyar RT., priority 1997, dated 2003)
# Marks after values point to notes of the source that are not given here.
# Assays:
# Type in all cases: in vivo, rat
# [1] = system: acidified ethanol induced gastric lesion; assay: Inhibition of acidified-ethanol induced gastric lesions
# Description: Female RG-Wistar rats weighing between 120-150 g were used. Before experiments animals were fasted for 24 hours but received water ad libitum.
# Experiments were carried out according to the technique similar to that described by A. Robert [Gastroenterology 77, […] (1979)].
# Acidified ethanol (mixture of 50 ml of abs. ethanol and 1 ml of concentrated HCI) was used as strong irritants. Dose of acidified ethanol was 0.5 ml/100 g body weight with intragastric administration. Test compounds were given orally 30 minutes before the acidified ethanol challenge. When the duration of action of test compound was studied test material was administered 60 or 120 minutes earlier to the irritating effect induced by acidified-ethanol effect. One hour after the acidified ethanol treatment rats were sacrificed by cervical dislocation. Stomachs were removed and opened along the greater curvature and mildly washed down. The longitudinal hemorrhagic lesions were assayed by length.
# ED50 value was defined as the dose that gave a 50% decrease in ulcer index.
# [2] = system: platelet activating factor (PAF) induced gastric lesion; assay: Inhibition of gastric damage induced by platelet activating factor (PAF); conditions: for Inhibition: 30 min before PAF; for Lesion score/stomach ± S.E.M.: 30 min before PAF infusion, score 0-3
# Description: Male, RG-Wistar rats weighing between 200-250 g were used. Before the experiments animals were fasted for 24 hours but received water ad libitum. Experiments were carried out according to the technique similar to that described by Wallace and Whittle (1986). [Br.J.Pharmac., 89,415, (1986)]. Animals were anaesthetized by intraperitoneal administration of urethane at a dose of 1 g/kg in a volume of 10 ml/kg. Femoral vein was then prepared and cannulated for administration of ulcerogenic PAF. After the surgery PAF was infused intravenously at a rate of 0.1 ml/min for ten minutes at a dose of 200 ng/kg/min. Test compounds were given 30 minutes before the PAF challenge. One hour after the infusion of PAF animals were sacrificed by cervical dislocation; their stomachs were removed and opened along the greater curvature. The hemorrhagic erosions were evaluated by a zero to three scoring system.
# [3] = system: acidified ethanol induced gastric damage; assay: Effect of L-NAME (endogenous NO) on protection against acidified-ethanol induced gastric damage
# Description: To study the mechanism of action of the compound to be tested, the involvement of endogenous NO in the development of acidified-ethanol induced gastric damage was also studied by intraperitoneal administration of L-N^G-nitroarginine methyl ester (L-NAME). L-NAME at a dose of 25 mg/kg was injected 15 minutes before the test compound. In subsequent experiments the test compound (p.o.), L-NAME (25 mg/kg i.p.), L-arginine (400 mg/kg i.v.) were administered 30, 45 or 60 minutes before oral administration of acidified-ethanol.
# The connection between the cytoprotective effect of zinc hyaluronate and endogenic NO was studied by using an inhibitor of the nitrogen(II) oxide biosynthesis namely, N^G-nitro-L-arginine methyl ester (L-NAME). Considering that zinc hyaluronate(II) and zinc hyaluronate(M) had shown the same activity in acidified ethanol test, the latter was the only one tested in this experiment.
# [4] = system: acetic acid induced chronic gastric ulcer; assay: Inhibition of acetic acid induced chronic gastric ulcer; conditions: for Ulcerated area mm^2 ± S.E.M.: day 5 to 14 after surgery
# Description: Female, RG Wistar rats weighing between 120-150 g were used. Before the surgery animals were deprived of food for 24 hours but received water ad libitum. The chronic gastric ulcer was induced by the injection of 25 μl/animal of 20% (v/v) acetic acid into the gastric wall under light ether anaesthesia according to the method similar to that described by Takagi et al. (1969). The oral treatment with the test compounds was started five days after the surgery and continued in a once-a-day regimen up to the 14th day. The animals were killed on the 15th day and their stomachs were dissected. The severity of ulceration was evaluated by the measurement of the diameter of the ulcers and the area affected was calculated. The healing effect was expressed as differences in percentage between the control and test group values.
# [5] = system: stress-induced gastric lesion; assay: Inhibition of stress (cold-restraint) induced gastric lesions; conditions: for Lesion score/stomach ± S.E.M.: 30 min before cold-restraint stress, score 0-3; for Inhibition: 30 min before stress
# Description: Female RG Wistar rats weighing between 120-150 g were used. Before the experiments animals were fasted for 24 hours but received water ad libitum. Experiments were carried out according to the technique similar to that described by Senay et al., (1967). [Proc. Soc. Exp. Biol. Med.124,1221, (1967)].
# Test compounds were given orally. 30 minutes later the animals were immobilized in plastic restraint boxes then placed into a refrigerator at 4° C.-8° C. temperature. Four hours later the animals were removed from both the refrigerator and the restraint boxes and one hour later they were sacrificed by cervical dislocation. The stomachs were removed, opened along the greater curvature and hemorrhagic lesions were scored by a zero to 3 scale: stomachs free from any damage were given a score of 0, stomachs with only a few hemorrhagic lesion were given a score of 1, stomachs with more lesion numbers than 10 were given a score of 2, and stomachs with a lot of lesions were characterized with a score of 3.
# The ED50 were defined as the dose needed to decrease the score of gastric lesions by 50%.
# [6] = 10 mg/kg p.o., 30 min before acidified ethanol
# [7] = 25 mg/kg p.o., 30 min before acidified ethanol
# [8] = 25 mg/kg p.o., pretreatment time 60 minutes
# [9] = 25 mg/kg p.o., pretreatment time 120 minutes
# [10] = 50 mg/kg p.o., 30 min before acidified ethanol
# [11] = 50 mg/kg p.o., pretreatment time 60 minutes
# [12] = 50 mg/kg p.o., pretreatment time 120 minutes
# [13] = 100 mg/kg p.o., 30 min before acidified ethanol
# [14] = 100 mg/kg p.o., pretreatment time 60 minutes
# [15] = 100 mg/kg p.o., pretreatment time 120 minutes
# [16] = D-Arg + L-NAME + ZH/M, 400 + 25 + 50 mg/kg
# [17] = L-Arg + L-NAME + ZH/M, 400 + 25 + 50 mg/kg
substance,measurement,setting,value
zinc hyaluronate [Zinc hyaluronate (M)],Inhibition,[1]; [6],47.7%
same,Lesion length/stomach mm ± S.E.M.,[1]; [6],57.9 ± 8.2 mm
same,Inhibition,[1]; [7],69.9%
same,Lesion length/stomach mm ± S.E.M.,[1]; [7],33.3 ± 7.7 mm
same,Inhibition,[1]; [8],28.7%
same,Lesion length/stomach mm ± S.E.M.,[1]; [8],49.7 ± 5.9 mm
same,Inhibition,[1]; [9],12.2%
same,Lesion length/stomach mm ± S.E.M.,[1]; [9],53.2 ± 7.7 mm
same,Inhibition,[1]; [10],88.3%
same,Lesion length/stomach mm ± S.E.M.,[1]; [10],13.0 ± 3.0 mm
same,Inhibition,[1]; [11],45.6%
same,Lesion length/stomach mm ± S.E.M.,[1]; [11],37.9 ± 12.2 mm
same,Inhibition,[1]; [12],45.9%
same,Lesion length/stomach mm ± S.E.M.,[1]; [12],32.8 ± 7.5 mm
same,Inhibition,[1]; [13],97.6%
same,Lesion length/stomach mm ± S.E.M.,[1]; [13],2.7 ± 1.4 mm
same,Inhibition,[1]; [14],93.4%
same,Lesion length/stomach mm ± S.E.M.,[1]; [14],4.6 ± 1.7 mm
same,Inhibition,[1]; [15],83.0%
same,Lesion length/stomach mm ± S.E.M.,[1]; [15],10.3 ± 4.6 mm
same,ED50 (dose giving 50% decrease in ulcer index),"[1]; p.o., 30 min pretreatment",10.4 mg/kg
same,Inhibition,[2]; 50 mg/kg p.o.,27.3%
same,Lesion score/stomach ± S.E.M.,[2]; 50 mg/kg p.o.,1.6 ± 0.4
same,Inhibition,[2]; 100 mg/kg p.o.,40.9%
same,Lesion score/stomach ± S.E.M.,[2]; 100 mg/kg p.o.,1.3 ± 0.2
same,Protection against ulcerogenic effect of PAF (in words),"[2]; rat, in vivo",strongly reduced the ulcerogenic effect of PAF
same,Inhibition (compared with the vehicle + vehicle group),[3]; [16],48.4%
same,Lesion length/stomach mm ± S.E.M.,[3]; [16],31.2 ± 3.5*d mm
same,Inhibition (compared with the vehicle + vehicle group),[3]; [17],60.2%
same,Lesion length/stomach mm ± S.E.M.,[3]; [17],24.1 ± 4.4*c mm
same,Effect of L-NAME pretreatment on the gastroprotective activity (in words),[3]; L-NAME 25 mg/kg,considerably reduced
same,Inhibition (compared with the vehicle + vehicle group),"[3]; L-NAME + ZH/M, 25 + 50 mg/kg",31.9%
same,Lesion length/stomach mm ± S.E.M.,"[3]; L-NAME + ZH/M, 25 + 50 mg/kg",41.2 ± 4.6*b mm
same,Inhibition (compared with the vehicle + vehicle group),"[3]; Vehicle + ZH/M, 0 + 50 mg/kg",69.6%
same,Lesion length/stomach mm ± S.E.M.,"[3]; Vehicle + ZH/M, 0 + 50 mg/kg",18.4 ± 2.3 mm
same,Ulcerated area mm^2 ± S.E.M.,[4]; 0.1 mg/kg p.o. once a day,9.4 ± 2.3 mm^2
same,Ulcerated area mm^2 ± S.E.M.,[4]; 1.0 mg/kg p.o. once a day,7.6 ± 1.4 mm^2
same,Effect on healing of acetic acid induced chronic ulcer (in words),"[4]; rat, in vivo",accelerated the healing
same,Lesion score/stomach ± S.E.M.,[5]; 25 mg/kg p.o.,1.0 ± 0.3
same,Inhibition,[5]; 25 mg/kg p.o.,41.2%
same,Lesion score/stomach ± S.E.M.,[5]; 50 mg/kg p.o.,0.4 ± 0.2
same,Inhibition,[5]; 50 mg/kg p.o.,76.5%
same,Lesion score/stomach ± S.E.M.,[5]; 100 mg/kg p.o.,0*
same,Inhibition,[5]; 100 mg/kg p.o.,100%
same,ED50 (dose decreasing score of gastric lesions by 50%),[5]; oral administration,29.4 mg/kg
